Literature values, collected in patent publication US20090155357A1, “Alcohol Resistant Pharmaceutical Formulations” (priority 2005, published 2009).

Assays:
[1] = solubility in water
[2] = solubility in alcohol

Row | Molecule | Water [1] | Alcohol [2]
1 | CCCCCCCCCCCCCCCCCC(=O)OCC(O)CO (stereo not shown) [Glyceryl Monostearate] | I | I
2 | CCCCCCCCCCCCCCCC(=O)OCC(O)CO (stereo not shown) [Glyceryl Palmitate] | I | I
3 | [O]=[Mg] [Magnesium Oxide] | I | I
4 | Dibasic/Tribasic calcium phosphate dihydrate | I | I
5 | Glyceryl Behanate | I | I
